Test [1] addresses T1, CMP-N-acetylneuraminate-beta-1,4-galactoside alpha-2,3-sialyltransferase (Rattus norvegicus, UniProt Q02734).
T1 sequence (Q02734 whole entry): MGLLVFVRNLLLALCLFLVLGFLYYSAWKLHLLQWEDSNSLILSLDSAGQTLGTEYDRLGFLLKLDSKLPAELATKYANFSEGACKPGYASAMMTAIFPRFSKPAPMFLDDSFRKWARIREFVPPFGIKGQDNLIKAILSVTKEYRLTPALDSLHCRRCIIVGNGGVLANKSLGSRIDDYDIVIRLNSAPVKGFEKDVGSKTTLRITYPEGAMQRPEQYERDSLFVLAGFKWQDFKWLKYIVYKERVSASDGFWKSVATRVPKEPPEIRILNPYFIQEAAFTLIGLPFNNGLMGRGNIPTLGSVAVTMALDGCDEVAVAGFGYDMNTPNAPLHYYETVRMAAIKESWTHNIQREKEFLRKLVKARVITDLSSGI
In words: Inhibition of rat recombinant alpha 2,3-(N)-sialyltransferase 3.

Test [2] is described as follows: Inhibition of alpha-(1,6)-fucosyltransferase after 60 mins by Lineweaver-Burke plot analysis.
A short description of test [3]: Inhibition of alpha-(1,3)-fucosyltransferase after 60 mins by Lineweaver-Burke plot analysis.

Description for Rattus norvegicus: Inhibition of rat recombinant alpha 2,6-(N)-sialyltransferase 1 by Lineweaver-Burke plot analysis

For orientation: Km means the concentration of substrate that gives half-maximal velocity. What is called IC50 is the concentration needed to halve the response being measured. As to `C[C@]12CC[C@@H]3c4ccc(O)cc4CC[C@H]3[C@@H]1CC[C@@]2(O)c1cn(CC(=O)N[C@H]2[C@H]([C@H](O)[C@H](O)CO)O[C@](OP(=O)(O)OC[C@H]3O[C@@H](n4ccc(N)nc4=O)[C@H](O)[C@@H]3O)(C(=O)O)C[C@@H]2O)nn1`, in the test filed under Rattus norvegicus, the Km is 125 µM. Also, the half-maximal inhibitory concentration (IC50) in test [1] came out at 8.2 µM. A word on the Ki: it is a measure of affinity in units of concentration, obtained from inhibition or displacement. Lower therefore signals tighter binding. As for `CCCCCc1ccc(-c2cn(C[C@@H]3O[C@H](OP(=O)(O)OP(=O)(O)OC[C@H]4O[C@@H](n5cnc6c(=O)[nH]c(N)nc65)[C@H](O)[C@@H]4O)[C@@H](O)[C@H](O)[C@@H]3O)nn2)cc1`, in test [2], affinity was put at a Ki of 13.8 µM. In test [3], `C[C@]12CC[C@@H]3c4ccc(O)cc4CC[C@H]3[C@@H]1CC[C@@]2(O)c1cn(C[C@@H]2O[C@H](OP(=O)(O)OP(=O)(O)OC[C@H]3O[C@@H](n4cnc5c(=O)[nH]c(N)nc54)[C@H](O)[C@@H]3O)[C@@H](O)[C@H](O)[C@@H]2O)nn1` yielded an inhibition constant (Ki) of 0.293 µM.

The record behind these values is ChEMBL document CHEMBL1212919, “An efficient approach to the discovery of potent inhibitors against glycosyltransferases” (J Med Chem, 2010).
